Test results: patent publication US11028068B2, “Somatostatin modulators and uses thereof” (Crinetics Pharmaceuticals, Inc., priority 2017, dated 2021)

molecular target: T1, human somatostatin receptor subtype 2 (Homo sapiens, UniProt P30874); experiment: cAMP assay (inhibition of cAMP activities via sst2 receptor); assay type: cell-based; settings: CHO cells expressing the human somatostatin receptor subtype 2, forskolin
T1 construct: expressed in transfected cells; host or cells: CHO (Chinese hamster ovary) cells, cultured under G-418 selection
Excerpt: General overview: All five SSTR subtypes are Gi coupled G-protein coupled receptors (GPCRs) that lead to decreases in intracellular cyclic AMP (cAMP) when activated by an agonist. Therefore, measurement of intracellular cAMP levels can be used to assess whether compounds of the invention are agonists of SSTR subtypes (John Kelly, Troy Stevens, W. Joseph Thompson, and Roland Seifert, Current Protocols in Pharmacology, 2005,2.2.1-2.2). One example of an intracellular cAMP assay is described below.
One day prior to the assay, 40,000 Chinese hamster ovary (CHO) cells expressing the human somatostatin receptor subtype 2 are plated in each well of a 96-well tissue culture plate in DM-MEM growth media (Gibco) with the following additives: 10% fetal bovine serum (Gibco), 100 U/mL penicillin (Gibco), 100 ug/mL streptomycin (Gibco), 10 mM HEPES (Gibco), 1.2 mM sodium hydroxide, 0.5 mg/mL G-418 (Gibco)). The cells are cultured overnight at 37° C., 5% CO2 and 95% humidity. On the day of the assay, the media is aspirated and the cells are washed with 1X Dulbecco's phosphate buffered saline (Gibco). Next, 5 μL of assay buffer (1× Earle's Balanced Salt Solution (Gibco), 5 mM MgCl2, 10 mM HEPES, 0.1% bovine serum albumin, 0.2 mM 3-Isobutyl-1-methylxanthine (IBMX, Biomol Research Labs)) and forskolin is added. Various dilutions of the compounds of the invention are prepared in assay buffer and 5 μL of the dilutions are added to the cultured cells and incubated for 15 minutes at 37° C. (the final concentration of the compounds of the invention are typically 0-10,000 nM). 10 μL of lysis buffer (HRTF cAMP kit, Cisbio) containing cAMP detection and visualization antibodies are added and the assay is allowed incubate for 1-24 hours at room temperature. The intracellular cAMP concentrations are then measured using a commercially available detection kit (for example, the cAMP HTRF kit, Cisbio). The measured intracellular cAMP concentrations are plotted vs. the concentration of the compounds of the invention and the EC50 of the compounds are calculated using standard methods.

T1 sequence (P30874 whole entry): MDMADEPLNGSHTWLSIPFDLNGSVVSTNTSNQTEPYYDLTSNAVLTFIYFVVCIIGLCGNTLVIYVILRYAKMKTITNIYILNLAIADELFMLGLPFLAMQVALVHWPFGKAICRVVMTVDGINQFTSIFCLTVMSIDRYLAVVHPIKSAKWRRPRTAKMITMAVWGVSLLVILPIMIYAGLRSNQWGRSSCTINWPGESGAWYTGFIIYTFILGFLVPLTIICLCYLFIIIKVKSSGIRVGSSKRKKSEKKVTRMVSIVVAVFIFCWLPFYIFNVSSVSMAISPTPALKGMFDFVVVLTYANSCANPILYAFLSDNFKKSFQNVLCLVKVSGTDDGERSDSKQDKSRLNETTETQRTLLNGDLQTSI

SMILES	EC50 [µM]
CN(C[C@@H]1CCCN1)C(=O)c1c(N2CCOCC2)cnc2ccc(-c3cccc(O)c3)nc12 [Compound 3-12, 6-(3-hydroxyphenyl)-N-methyl-3-(morpholin-4-yl)-N-[(2S)-pyrrolidin-2-ylmethyl]-1,5-naphthyridine-4-carboxamide]	0.1 to 1
Cc1cccc(-c2cnc3ccc(-c4cccc(O)c4)nc3c2C(=O)N(C)C[C@@H]2CCCN2)n1 [Compound 3-5, 6-(3-hydroxyphenyl)-N-methyl-3-(6-methylpyridin-2-yl)-N-[(2S)-pyrrolidin-2-ylmethyl]-1,5-naphthyridine-4-carboxamide]	0.1 to 1
CN(C[C@@H]1CCCN1)C(=O)c1c(N2CCO[C@@H](c3ccccc3)C2)cnc2ccc(-c3cc(F)cc(C#N)c3)nc12 [Compound 3-47, 6-(3-cyano-5-fluorophenyl)-N-methyl-3-[(2S)-2-phenylmorpholin-4-yl]-N-[(2S) -pyrrolidin-2-ylmethyl]-1,5-naphthyridine-4-carboxamide]	0.1 to 1
CN(C[C@@H]1CCCN1)C(=O)c1c(N2CCc3cc(C(F)(F)F)ccc32)cnc2ccc(-c3cc(F)cc(C#N)c3)nc12 [Compound 3-54, 6-(3-cyano-5-fluorophenyl)-N-methyl-N-[(2S)-pyrrolidin-2-ylmethyl]-3-[5-(trifluoromethyl)-2,3-dihydro-1H-indol-1-yl]-1,5-naphthyridine-4-carboxamide]	0.1 to 1
Cc1cc(Cl)cc(-c2cnc3ccc(-c4cc(O)ccc4F)nc3c2C(=O)N(C)C[C@@H]2CCCN2)c1 [Compound 2-3, 3-(3-chloro-5-methylphenyl)-6-(2-fluoro-5-hydroxyphenyl)-N-methyl-N-[(2S)-pyrrolidin-2-ylmethyl]-1,5-naphthyridine-4-carboxamide]	< 0.1
CN(C[C@@H]1CCCN1)C(=O)c1ccnc2ccc(-c3cccc(O)c3)nc12 [Compound 3-1, 6-(3-hydroxyphenyl)-N-methyl-N-[(2S)-pyrrolidin-2-ylmethyl]-1,5-naphthyridine-4-carboxamide]	< 0.1
CC[C@H](N)CN(C)C(=O)c1c(-c2cc(C)cc(Cl)c2)cnc2ccc(-c3cc(O)cc(C#N)c3)nc12 [Compound 2-6, N-[(2S)-2-aminobutyl]-3-(3-chloro-5-methylphenyl)-6-(3-cyano-5-hydroxyphenyl)-N -methyl-1,5-naphthyridine-4-carboxamide]	< 0.1
CN(C[C@@H]1CCCN1)C(=O)c1c(N2CC(C)(C)OC(C)(C)C2)cnc2ccc(-c3cc(F)cc(C#N)c3)nc12 [Compound 3-49, 6-(3-cyano-5-fluorophenyl)-N-methyl-N-[(2S)-pyrrolidin-2-ylmethyl]-3-(2,2,6,6-tetramethylmorpholin-4-yl)-1,5-naphthyridine-4-carboxamide]	0.1 to 1
CN(C[C@@H]1CCCN1)C(=O)c1c(-c2cccc(C#N)c2)cnc2ccc(-c3cc(F)cc(C#N)c3)nc12 [Compound 2-15, 6-(3-cyano-5-fluorophenyl)-3-(3-cyanophenyl)-N-methyl-N-[(2S)-pyrrolidin-2-ylmethyl]-1,5-naphthyridine-4-carboxamide]	0.1 to 1
COC(=O)Cc1cccc(-c2cnc3ccc(-c4cccc(O)c4)nc3c2C(=O)N(C)C[C@@H]2CCCN2)c1 [Compound 2-21, methyl 2-{3-[6-(3-hydroxyphenyl)-4-{methyl[(2S)-pyrrolidin-2-ylmethyl]carbamoyl}-1,5-naphthyridin-3-yl]phenyl}acetate]	0.1 to 1
CN(C[C@@H]1CCCN1)C(=O)c1c(N2CCC(CO)C2)cnc2ccc(-c3cccc(O)c3)nc12 (stereo partly drawn) [Compound 3-17, 3-[3-(hydroxymethyl)pyrrolidin-1-yl]-6-(3-hydroxyphenyl)-N-methyl-N-[(2S)-pyrrolidin-2-ylmethyl]-1,5-naphthyridine-4-carboxamide]	0.1 to 1
CC1CN(c2cnc3ccc(-c4cccc(O)c4)nc3c2C(=O)N(C)C[C@@H]2CCCN2)CC(C)O1 (stereo partly drawn) [Compound 3-6, 3-(2,6-dimethylmorpholin-4-yl)-6-(3-hydroxyphenyl)-N-methyl-N-[(2S)-pyrrolidin-2-ylmethyl]-1,5-naphthyridine-4-carboxamide]	< 0.1
CN(C[C@@H]1CCCN1)C(=O)c1c(N2CCCC2)cnc2ccc(-c3cccc(O)c3)nc12 [Compound 3-4, 6-(3-hydroxyphenyl)-N-methyl-3-(pyrrolidin-1-yl)-N-[(2S)-pyrrolidin-2-ylmethyl]-1,5-naphthyridine-4-carboxamide]	< 0.1
CN(CC1CCCN1)C(=O)c1c(-c2cccc(CC(=O)O)c2)cnc2ccc(-c3cccc(O)c3)nc12 (centres unmarked) [Compound 2-20, 2-{3-[6-(3-hydroxyphenyl)-4-[methyl(pyrrolidin-2-ylmethyl)carbamoyl]-1,5-naphthyridin-3-yl]phenyl}acetic acid]	0.1 to 1
Cc1cc(F)cc(-c2cnc3ccc(-c4cccnc4)cc3c2C(=O)N(C)C[C@@H]2CCCN2)c1 [Compound 3-48, 3-(3-fluoro-5-methylphenyl)-N-methyl-6-(pyridin-3-yl)-N-[(2S)-pyrrolidin-2-ylmethyl]quinoline-4-carboxamide]	< 0.1
Cc1cc(F)cc(-c2cnc3ccc(-c4cnn(C)c4)cc3c2C(=O)N(C)C[C@@H]2CCCN2)c1 [Compound 3-10, 3-(3-fluoro-5-methylphenyl)-N-methyl-6-(1-methyl-1H-pyrazol-4-yl)-N-[(2S)-pyrrolidin-2-ylmethyl]quinoline-4-carboxamide]	0.1 to 1
Cc1cc(Cl)cc(-c2cnc3ccc(-c4cc(O)cc(C#N)c4)nc3c2C(=O)N(C)C[C@@H]2CCCN2)c1 [Compound 2-4, 3-(3-chloro-5-methylphenyl)-6-(3-cyano-5-hydroxyphenyl)-N-methyl-N-[(2S)-pyrrolidin-2-ylmethyl]-1,5-naphthyridine-4-carboxamide]	0.1 to 1
Cc1cc(Cl)cc(-c2cnc3ccc(-c4cccc(O)c4)cc3c2C(=O)N(C)C[C@H]2CCCN2)c1 (single isomer, unassigned) [Compound 1-5]	0.039
CC[C@H](N)CN(C)C(=O)c1c(-c2cc(C)cc(F)c2)cnc2ccc(-c3cc(O)cc(C#N)c3)nc12 [Compound 2-7, N-[(2S)-2-aminobutyl]-6-(3-cyano-5-hydroxyphenyl)-3-(3-fluoro-5-methylphenyl)-N -methyl-1,5-naphthyridine-4-carboxamide]	< 0.1
CC[C@H](N)CN(C)C(=O)c1c(-c2cc(C)cc(C)c2)cnc2ccc(-c3cc(O)cc(C#N)c3)nc12 [Compound 2-5, N-[(2S)-2-aminobutyl]-6-(3-cyano-5-hydroxyphenyl)-3-(3,5-dimethylphenyl)-N-methyl-1,5-naphthyridine-4-carboxamide]	< 0.1
Cc1cc(F)cc(-c2cnc3ccc(N4CCCC(O)C4)nc3c2C(=O)N(C)C[C@@H]2CCCN2)c1 (some centres unmarked) [Compound 3-3]	0.1 to 1
CN(C[C@@H]1CCCN1)C(=O)c1c(N2CCO[C@H](c3ccccc3)C2)cnc2ccc(-c3cc(F)cc(C#N)c3)nc12 [Compound 3-42, 6-(3-cyano-5-fluorophenyl)-N-methyl-3-[(2R)-2-phenylmorpholin-4-yl]-N-[(2S) -pyrrolidin-2-ylmethyl]-1,5-naphthyridine-4-carboxamide]	0.1 to 1
CN(C[C@@H]1CCCN1)C(=O)c1c(C2=CCCC2)cnc2ccc(-c3cc(F)cc(C#N)c3)nc12 [Compound 3-9, 6-(3-cyano-5-fluorophenyl)-3-(cyclopent-1-en-1-yl)-N-methyl-N-[(2S)-pyrrolidin-2-ylmethyl]-1,5-naphthyridine-4-carboxamide]	< 0.1
